Values quoted from earlier work, collected in patent US20230381101A1, “AQUEOUS PHARMACEUTICAL COMPOSITIONS COMPRISING SGLT-2 INHIBITORS” (Boehringer Ingelheim Vetmedica GmbH, priority 2022, published 2023).

Details: n-octanol/water; values taken from http://www.chemicalize.org/

SMILES | log10P
OCC(O)CO [propane-1,2,3-triol] | −1.84
CCO [ethanol] | −0.16
CC(=O)N(C)C [N,N-dimethylacetamide] | −0.583
